Each structure is given as a SMILES string.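 Growth conditions: 96-well plates. Treatment: test compound, 48 hours, 5 concentrations. Analysis: linear interpolation between bracketing concentrations; unreached endpoints set to highest concentration. The concentration for 50% growth inhibition is given as GI50.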 Calls of active or inactive are those of the source. Rule as the data show it: active = GI50 up to about 1.1 µM and inactive = higher.

The results in this text go back to ChEMBL document CHEMBL1201862, “PubChem BioAssay data set” (2004).

Test systems include SN12C; HL-60; UACC-62; HCC 2998; HCT-15; KM12; NCI-H23; NCI/ADR-RES; HOP-92; OVCAR-5; NCI-H460; MOLT-4; UACC-257; CAKI-1; SW-620; SNB-19; K562; RPMI-8226; SF-268; HCT-116.
Holding throughout (experiment): NCI tumour cell line growth inhibition, 48 h

Take `O=C(O)COCC(=O)N(CCOCCN(Cc1ccccc1)C(=O)COCC(=O)O)Cc1ccccc1`: the GI50 was > 100 µM (inactive) in the experiment on SN12C; > 100 µM (inactive) with HL-60; > 100 µM (inactive) with UACC-62; > 100 µM (inactive) with HCC 2998; above 100000 nM in the experiment with HCT-15; > 100 µM (inactive) in the experiment with KM12. Moreover, the GI50 is > 100 µM (inactive) in the experiment on NCI-H23; > 100 µM (inactive) in the experiment with NCI/ADR-RES; < 0.01 µM (active) in the experiment with HOP-92; > 100 µM (inactive) in the experiment with OVCAR-5; > 100 µM (inactive) in the experiment with NCI-H460; > 100 µM (inactive) in the experiment on MOLT-4. For the same compound, the GI50 with UACC-257, in the experiment on CAKI-1, in the experiment on SW-620, with SNB-19, with K562 and in the experiment with RPMI-8226 was > 100 µM (inactive) each time. The GI50 in the experiment with SF-268 and with HCT-116 was > 100 µM (inactive) each time.
Take `O=C1Cc2c([nH]c3ccc([N+](=O)[O-])cc23)-c2ccccc2N1` [ALSTERPAULLONE]: the GI50 in the experiment on SN12C is 0.391 µM (active); with HL-60, 0.261 µM (active); in the experiment with UACC-62 it was 0.94 µM (active); in the experiment on HCC 2998, 0.914 µM (active); with HCT-15, 237 nM; with KM12 it was 0.165 µM (active). For the same compound, the GI50 with NCI-H23 is 0.557 µM (active); in the experiment on NCI/ADR-RES, 0.61 µM (active); in the experiment on HOP-92, 7.93 µM (inactive); in the experiment with OVCAR-5 it was 0.22 µM (active); in the experiment on NCI-H460 it was 0.396 µM (active); in the experiment with MOLT-4, 0.312 µM (active). The GI50 was 1.11 µM (active) with UACC-257; 0.332 µM (active) with CAKI-1; 0.348 µM (active) in the experiment with SW-620; 0.478 µM (active) in the experiment on SNB-19; 0.774 µM (active) in the experiment with K562; 0.438 µM (active) with RPMI-8226. Further, the GI50 is 0.471 µM (active) in the experiment on SF-268 and 0.116 µM (active) in the experiment on HCT-116.
For the compound `C=C(C)[C@H]1CC(=O)[C@@]2(C)C[C@H]3O[C@]3(C)CC/C=C(\C)CC[C@H]12`, the GI50 in the experiment with SN12C was 23.6 µM (inactive); with HL-60, 21.6 µM (inactive); in the experiment on UACC-62, 28.1 µM (inactive); in the experiment with HCC 2998, > 100 µM (inactive); in the experiment on HCT-15, 47200 nM; in the experiment with KM12 it was 16 µM (inactive). In addition, the GI50 in the experiment with NCI-H23 was 34.4 µM (inactive); in the experiment on NCI/ADR-RES it was 35.4 µM (inactive); in the experiment with HOP-92 it was 64.1 µM (inactive); in the experiment with OVCAR-5, 86.9 µM (inactive); in the experiment on NCI-H460, 45.7 µM (inactive); in the experiment on MOLT-4, 24 µM (inactive). Further, the GI50 is 19.4 µM (inactive) in the experiment with UACC-257; 28.2 µM (inactive) with CAKI-1; 42.3 µM (inactive) in the experiment on SW-620; 70 µM (inactive) in the experiment on SNB-19; 18 µM (inactive) with K562; 33.4 µM (inactive) with RPMI-8226. Also, the GI50 with SF-268 was 77.3 µM (inactive); in the experiment on HCT-116, 33.9 µM (inactive).
In the case of `Cc1ccc(NC(c2ccccc2)c2ccc3cccnc3c2O)cc1` (stereo not given), the GI50 in the experiment on SN12C is 4.63 µM (inactive); with HL-60, 2.04 µM (inactive); in the experiment on UACC-62, 3.84 µM (inactive); with HCC 2998, 16.4 µM (inactive); with HCT-15, 2640 nM; with KM12, 5.02 µM (inactive). Also, the GI50 in the experiment on NCI-H23 was 5.79 µM (inactive); with NCI/ADR-RES it was 2.79 µM (inactive); in the experiment with HOP-92 it was 3.48 µM (inactive); in the experiment on OVCAR-5, 7.11 µM (inactive); in the experiment on NCI-H460 it was 2.58 µM (inactive); in the experiment on MOLT-4, 2.37 µM (inactive). For the same compound, the GI50 in the experiment with UACC-257 is 9.79 µM (inactive); in the experiment on CAKI-1, 5.11 µM (inactive); in the experiment on SW-620, 6.34 µM (inactive); in the experiment with SNB-19, 6.37 µM (inactive); in the experiment on K562, 3.02 µM (inactive); in the experiment with RPMI-8226, 2.61 µM (inactive). Besides, the GI50 was 2.24 µM (inactive) in the experiment on SF-268 and 3.23 µM (inactive) in the experiment on HCT-116.
On to `CCCC[C@H]1C(=O)O[C@H](C)[C@H](NC(=O)c2cccc(NC=O)c2O)C(=O)O[C@@H](C)[C@@H]1OC(=O)CC(C)C` [ANTIMYCIN A3], for which the GI50 with SN12C was 14.2 µM (inactive); in the experiment with HL-60 it was 0.0968 µM (active); in the experiment with UACC-62, 0.16 µM (active); in the experiment with HCC 2998 it was 10.9 µM (inactive); with HCT-15 it was below 10 nM; with KM12 it was 0.444 µM (active). Also, the GI50 with NCI-H23 was 0.294 µM (active); with NCI/ADR-RES it was 5.32 µM (inactive); with HOP-92, 5.36 µM (inactive); in the experiment on OVCAR-5 it was 17 µM (inactive); in the experiment with NCI-H460 it was < 0.01 µM (active); in the experiment on MOLT-4, < 0.01 µM (active). Besides, the GI50 in the experiment on UACC-257 is 0.04 µM (active); in the experiment on CAKI-1 it was 11.9 µM (inactive); in the experiment on SW-620, 8.18 µM (inactive); in the experiment on SNB-19, 2.91 µM (inactive); in the experiment with K562, < 0.0123 µM (active); in the experiment on RPMI-8226, 0.109 µM (active). The values for the GI50 with SF-268 and with HCT-116 were 6.56 µM (inactive) and < 0.01 µM (active), respectively.
Take `COc1ccc(NC(C(N)=O)c2cc3cc(Br)ccc3nc2Cl)cc1` (stereo not given): the GI50 in the experiment with SN12C is > 100 µM (inactive); in the experiment with HL-60, 25.4 µM (inactive); in the experiment on UACC-62, 52.7 µM (inactive); in the experiment with HCC 2998, 73.8 µM (inactive); with HCT-15, 47500 nM; in the experiment with KM12, 48.4 µM (inactive). In addition, the GI50 was > 100 µM (inactive) in the experiment on NCI-H23; 39 µM (inactive) in the experiment on NCI/ADR-RES; 22.5 µM (inactive) in the experiment with HOP-92; > 100 µM (inactive) in the experiment on OVCAR-5; 89.5 µM (inactive) in the experiment on NCI-H460; 20.2 µM (inactive) with MOLT-4. Besides, the GI50 was 71.8 µM (inactive) in the experiment with UACC-257; > 100 µM (inactive) in the experiment on CAKI-1; 38.7 µM (inactive) with SW-620; > 100 µM (inactive) with SNB-19; 26.7 µM (inactive) in the experiment with K562; 30.4 µM (inactive) in the experiment on RPMI-8226. Moreover, the GI50 is 76.4 µM (inactive) with SF-268 and 61 µM (inactive) with HCT-116.
In the case of `CC(C)/C(Cl)=N/OC(=O)Nc1ccc(F)c(Cl)c1`, the GI50 was 1.76 µM (inactive) in the experiment on SN12C; 2.03 µM (inactive) in the experiment with HL-60; 14.2 µM (inactive) in the experiment on UACC-62; 14.6 µM (inactive) with HCC 2998; 1930 nM with HCT-15; 16.6 µM (inactive) in the experiment with KM12. Also, the GI50 in the experiment with NCI-H23 was 14.2 µM (inactive); with NCI/ADR-RES, 14.5 µM (inactive); in the experiment with HOP-92 it was 1.59 µM (inactive); in the experiment on OVCAR-5, 19.2 µM (inactive); in the experiment with NCI-H460, 18.2 µM (inactive); with MOLT-4, 1.94 µM (inactive). The GI50 with UACC-257 was 13.5 µM (inactive); with CAKI-1, 1.68 µM (inactive); in the experiment on SW-620, 1.92 µM (inactive); in the experiment on SNB-19 it was 22.6 µM (inactive); in the experiment with K562, 1.09 µM (active); with RPMI-8226, 1.87 µM (inactive). Moreover, the GI50 was 19.4 µM (inactive) in the experiment on SF-268 and 2.54 µM (inactive) with HCT-116.
